{
  "source": "patent US6030960A",
  "about": "“Method of treating hepatitis virus infections” (priority 1998, dated 2000)",
  "key": {"[1]": {"test_system": "mouse precursor erythrocyte (CFU-E)", "assay": "Cytotoxicity: inhibition of mouse precursor erythrocyte (CFU-E) colony formation", "format": "cell-based", "experimental": "CP-51 and AZT were assayed for cytotoxicity by inhibition of mouse precursor erythrocyte (CFU-E) and granulocyte/macrophage (CFU-GM) cell colony formation."}, "Hepatitis B virus [2]": {"test_system": "Hepatitis B virus", "assay": "Effect of alkyl lipid on HBV induction of antigen markers, DNA and RNA in persistently infected human HEP-G2 cell cultures (Table 8)", "format": "cell-based", "settings": "for activity at 10 µM: Hepatitis B virus, HepG2, 216 h", "experimental": "Further analyses were carried out with compound CP-51. Again, the cells were treated for nine days at 37° C. The overlay medium was harvested to measure levels of HBsAg, HBeAg, HBcAg, virion DNA, RI DNA and RNA levels. HBsAg and HBeAg were assayed by EIA (Abbott Laboratories). HBcAg was assayed by a solid phase EIA. HBV RNA was analyzed by Northern blot hybridization using a ^32 P-labelled 3.2 Kb genomic probe. Intracellular HBV RNA and RI HBV DNA was quantitated using a AMBIS beta scanner."}, "[3]": {"test_system": "granulocyte/macrophage (CFU-GM)", "assay": "Cytotoxicity: inhibition of mouse granulocyte/macrophage (CFU-GM) colony formation", "format": "cell-based", "settings": "read-out: inhibitory concentration 50% for colony formation (IC50)", "experimental": "CP-51 and AZT were assayed for cytotoxicity by inhibition of mouse precursor erythrocyte (CFU-E) and granulocyte/macrophage (CFU-GM) cell colony formation. Mouse bone marrow precursor cells were suspended in soft-agar-RPMI-1640 medium supplmented with cell growth factors and serial concentrations of alkyl lipid."}, "Friend-Leukemia virus": {"test_system": "Friend-Leukemia virus", "assay": "Inhibition of retrovirus-induced splenomegaly in Friend-Leukemia virus infected mice (Table 9)", "format": "in vivo", "experimental": "Mice were infected I.P. with Friend-Leukemia virus and not treated or treated I.P. with daily doses of phospholipid. After 14 days infection and treatment, the mice were sacrificed, the spleens were removed and weighed to determine the percentage, of control splenomegaly. […] Even a single dose of 25 mg/kg CP-51 inhibited splenomegaly by 36%."}, "Hepatitis B virus [4]": {"test_system": "Hepatitis B virus", "assay": "Effect on synthesis of antigen markers in persistently infected human HEP G2 cell cultures (Table 7)", "format": "cell-based", "settings": "for activity at 10 µM: Hepatitis B virus, HepG2, 216 h", "in_short": "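Persistently infected HepG2 cells treated with compound for nine days at 37° C. Culture medium then harvested: HBsAg and HBeAg quantified by EIA, virion DNA by hybridisation-based DNA measurement. Sensitivity cut-off 0.1 pg DNA/ml medium.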"}, "[5]": {"test_system": "HEP G2 cells persistently infected with HBV", "assay": "Cytotoxicity in HBV persistently infected human HEP G2 cells, neutral red dye uptake (Table 5)", "format": "cell-based", "in_short": "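HBV-transfected HEP-G2 monolayers in RPMI-1640 were given compound at four serial concentrations in triplicate for nine days at 37 °C, with periodic medium replacement. Toxicity from 0.01% neutral red uptake (A510), as percent of nine untreated control wells on the same plate.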"}, "HIV-1": {"test_system": "HIV-1", "format": "in vivo", "settings": "rat, single oral dose of 15 mg/kg by gavage", "experimental": "The biologic activity of alkyl lipid CP-51 was evaluated in vivo. Sprague Dawley rats were fasted for 18 hours and received a single oral dose of 15 mg/kg of the alkyl lipid CP-51 by gavage. An in-dwelling carotid catheter was used to harvest whole blood at various times post-dose. The plasma containing the alkyl lipid was diluted 1:2 to 1:128 in phosphate buffered saline and assayed for biologic activity using the HIV-1 syncytial plaque test. CEM-SS cell monolayers were infected with HIV-1 and overlaid with RPMI-1640 medium containing serial dilutions of plasma. After incubation for five days at 37° C., the number of HIV-1 syncytial plaques was counted as previously described (Kucera et al., AIDS Res. Human Retroviruses, 6: 491-501, (1990))."}},
  "note": "Several values for one entry are separate records, joined by “and”; a condition that tells them apart may be missing. Identical values can stand only once. Entries after “also recorded” stand apart in the source; their conditions may differ.",
  "data": [
    {"smiles": "CCCCCCCCCCCCCCCCCC(=O)NCC(COP(=O)([O-])OCC[N+](C)(C)C)OCC", "note": "(racemic) [CP-51, rac-3-octadecanamido-2-ethyoxy-1-propylphosphocholine]", "values": [
      {"measurement": "cytotoxicity relative to AZT", "setting": "[1]; CFU-E and CFU-GM, in words", "result": "significantly less cytotoxic than AZT"},
      {"measurement": "IC50", "setting": "[1]; Mus musculus, Erythrocyte, read-out: inhibitory concentration 50% for colony formation (IC50)", "result": 41, "unit": "µg/mL"},
      {"measurement": "activity at 10 µM", "setting": "Hepatitis B virus [2]; 10 μM, nine days, untreated controls 100, read-out: Relative Level of HBcAg", "result": 32, "unit": "%"},
      {"measurement": "activity at 10 µM", "setting": "Hepatitis B virus [2]; 10 μM, nine days, untreated controls 100, read-out: Relative Level of HBeAg", "result": 24, "unit": "%"},
      {"measurement": "activity at 10 µM", "setting": "Hepatitis B virus [2]; 10 μM, nine days, untreated controls 100, read-out: Relative Level of HBsAg", "result": 88, "unit": "%"},
      {"measurement": "activity at 10 µM", "setting": "Hepatitis B virus [2]; 10 μM, nine days, untreated controls 100, read-out: Relative Level of Intracellular HBV-DNA", "result": 12, "unit": "%"},
      {"measurement": "activity at 10 µM", "setting": "Hepatitis B virus [2]; 10 μM, nine days, untreated controls 100, read-out: Relative Level of RI DNA", "result": 42, "unit": "%"},
      {"measurement": "activity at 10 µM", "setting": "Hepatitis B virus [2]; 10 μM, nine days, untreated controls 100, read-out: Relative Level of Total RNA", "result": 84, "unit": "%"},
      {"measurement": "activity at 10 µM", "setting": "Hepatitis B virus [2]; 10 μM, nine days, untreated controls 100, read-out: Relative Level of Virion DNA", "result": 2, "unit": "%"},
      {"measurement": "inhibition of Hepatitis B core antigen (HBcAg) levels", "setting": "Hepatitis B virus [2]; in words", "result": "significantly inhibited"},
      {"measurement": "level or size of HBV induced RNA transcripts of HBsAg", "setting": "Hepatitis B virus [2]; in words", "result": "did not significantly alter"},
      {"measurement": "IC50", "setting": "[3]", "result": 11, "unit": "µg/mL"},
      {"measurement": "inhibition of retrovirus-induced splenomegaly", "setting": "Friend-Leukemia virus; 12.5 mg/kg/day intraperitoneally", "result": 43, "unit": "%"},
      {"measurement": "% of Control Splenomegaly", "setting": "Friend-Leukemia virus; 12.5 mg/kg/day, daily treatment", "result": "43 % of Control"},
      {"measurement": "% of Control Splenomegaly", "setting": "Friend-Leukemia virus; 25 mg/kg, one treatment", "result": "36 % of Control"},
      {"measurement": "anti-retrovirus activity in infected animals", "setting": "Friend-Leukemia virus; in words", "result": "has anti-retrovirus activity in infected animals"},
      {"measurement": "inhibition of retrovirus-induced splenomegaly", "setting": "Friend-Leukemia virus; single dose of 25 mg/kg", "result": 36, "unit": "%"},
      {"measurement": "Relative Level of HBeAg", "setting": "Hepatitis B virus [4]; 10 μM, nine days, 12960 min", "result": "20 % of Untreated Control"},
      {"measurement": "Relative Level of HBsAg", "setting": "Hepatitis B virus [4]; 10 μM, nine days, 12960 min", "result": "78 % of Untreated Control and 114 % of Untreated Control"},
      {"measurement": "activity at 10 µM", "setting": "Hepatitis B virus [4]; 10 μM, nine days, read-out: Relative Level of HBeAg", "result": 23, "unit": "%"},
      {"measurement": "effect on HBsAg levels released into the culture medium", "setting": "Hepatitis B virus [4]; in words", "result": "None of the compounds tested"},
      {"measurement": "reduction in HBeAg and virion DNA levels", "setting": "Hepatitis B virus [4]; in words", "result": "caused a reduction; also recorded: most active compounds in suppressing HBeAg and virion DNA levels"},
      {"measurement": "Cell toxicity (greater than 50% depression of dye uptake)", "setting": "[5]", "result": "did not occur"},
      {"measurement": "% of Control Neutral Red Dye Uptake", "setting": "[5]; human, hep-g2 cells, 216 h, 3 µM", "result": "101 ± 1 % of Control"},
      {"measurement": "absorption into the blood", "setting": "HIV-1", "result": "rapidly absorbed into the blood of rats"},
      {"measurement": "biologically active concentrations in the blood (plasma)", "setting": "HIV-1; HIV-1 syncytial plaque test", "result": "biologically active concentrations of the compound CP-51 were obtained in the blood (plasma)"}
    ]},
    {"smiles": "Nc1ccn([C@H]2CC[C@@H](CO)O2)c(=O)n1", "note": "[2',3'-dideoxycytidine, 2', 3'-dideoxycytidine, reference compound]", "values": [
      {"measurement": "activity at 10 µM", "setting": "Hepatitis B virus [2]; read-out: Relative Level of HBcAg", "result": 102, "unit": "%"},
      {"measurement": "activity at 10 µM", "setting": "Hepatitis B virus [2]; read-out: Relative Level of HBeAg", "result": 95, "unit": "%"},
      {"measurement": "activity at 10 µM", "setting": "Hepatitis B virus [2]; read-out: Relative Level of HBsAg", "result": 96, "unit": "%"},
      {"measurement": "activity at 10 µM", "setting": "Hepatitis B virus [2]; read-out: Relative Level of Intracellular HBV-DNA", "result": 6, "unit": "%"},
      {"measurement": "activity at 10 µM", "setting": "Hepatitis B virus [2]; read-out: Relative Level of RI DNA", "result": 46, "unit": "%"},
      {"measurement": "activity at 10 µM", "setting": "Hepatitis B virus [2]; read-out: Relative Level of Total RNA", "result": 92, "unit": "%"},
      {"measurement": "activity at 10 µM", "setting": "Hepatitis B virus [2]; read-out: Relative Level of Virion DNA", "result": 2, "unit": "%"},
      {"measurement": "Relative Level of HBeAg", "setting": "Hepatitis B virus [4]; 10 μM, nine days, 12960 min", "result": "115 % of Untreated Control and 98 % of Untreated Control"},
      {"measurement": "Relative Level of HBsAg", "setting": "Hepatitis B virus [4]; 10 μM, nine days, 12960 min", "result": "112 % of Untreated Control and 102 % of Untreated Control"},
      {"measurement": "Relative Level of Virion DNA", "setting": "Hepatitis B virus [4]; 10 μM, nine days, 12960 min", "result": "2 % of Untreated Control"},
      {"measurement": "activity at 10 µM", "setting": "Hepatitis B virus [4]; read-out: Relative Level of HBeAg, 10 μM, nine days", "result": 101, "unit": "%"},
      {"measurement": "activity at 10 µM", "setting": "Hepatitis B virus [4]; read-out: Relative Level of HBsAg, 10 μM, nine days", "result": 100, "unit": "%"},
      {"measurement": "activity at 10 µM", "setting": "Hepatitis B virus [4]; read-out: Relative Level of Virion DNA, 10 μM, nine days", "result": 2, "unit": "%"}
    ]}
  ]
}
